In PubChem BioAssay (NCI):
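In this assay, cells in 96-well plates receive the compound at five concentrations for 48 hours. Endpoints are linearly interpolated between the surrounding concentrations. TGI is the concentration that stops growth completely.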

Columns and labels:
Experiment in all cases: DTP human tumour cell line panel, 48 h
SF-268 CNS = system: SF-268 CNS
OVCAR-8 ovarian = system: OVCAR-8 ovarian
TK-10 renal = system: TK-10 renal
MDA-N = system: MDA-N
OVCAR-4 ovarian = system: OVCAR-4 ovarian
MOLT-4 leukemia = system: MOLT-4 leukemia
DU-145 prostate = system: DU-145 prostate
SK-OV-3 ovarian = system: SK-OV-3 ovarian
EKVX NSCLC = system: EKVX NSCLC
UO-31 renal = system: UO-31 renal
SNB-75 CNS = system: SNB-75 CNS
SNB-19 CNS = system: SNB-19 CNS
SF-295 CNS = system: SF-295 CNS
OVCAR-5 ovarian = system: OVCAR-5 ovarian
SK-MEL-28 melanoma = system: SK-MEL-28 melanoma
BT-549 breast = system: BT-549 breast
T-47D breast = system: T-47D breast
HCT-116 colon = system: HCT-116 colon
SK-MEL-5 melanoma = system: SK-MEL-5 melanoma
HL-60(TB) leukemia = system: HL-60(TB) leukemia
A549 NSCLC = system: A549 NSCLC
U251 CNS = system: U251 CNS
786-0 renal = system: 786-0 renal
CAKI-1 renal = system: CAKI-1 renal
OVCAR-3 ovarian = system: OVCAR-3 ovarian
ACHN renal = system: ACHN renal
HT29 colon = system: HT29 colon
RXF 393 renal = system: RXF 393 renal
MDA-MB-231 breast = system: MDA-MB-231 breast
PC-3 prostate = system: PC-3 prostate
LOX IMVI melanoma = system: LOX IMVI melanoma
SF-539 CNS = system: SF-539 CNS
IGROV1 ovarian = system: IGROV1 ovarian
MDA-MB-435 = system: MDA-MB-435
HCC-2998 colon = system: HCC-2998 colon
NCI/ADR-RES ovarian = system: NCI/ADR-RES ovarian
MALME-3M melanoma = system: MALME-3M melanoma
HOP-62 NSCLC = system: HOP-62 NSCLC
SW-620 colon = system: SW-620 colon
HOP-92 NSCLC = system: HOP-92 NSCLC
SR leukemia = system: SR leukemia
K-562 leukemia = system: K-562 leukemia
HCT-15 colon = system: HCT-15 colon
MCF7 breast = system: MCF7 breast
NCI-H522 lung = system: NCI-H522 lung
SN12C renal = system: SN12C renal
HS 578T breast = system: HS 578T breast
NCI-H226 lung = system: NCI-H226 lung
NCI-H23 lung = system: NCI-H23 lung
CCRF-CEM leukemia = system: CCRF-CEM leukemia
KM12 colon = system: KM12 colon
A498 renal = system: A498 renal
NCI-H460 lung = system: NCI-H460 lung
UACC-257 melanoma = system: UACC-257 melanoma
M14 melanoma = system: M14 melanoma
RPMI-8226 leukemia = system: RPMI-8226 leukemia
COLO 205 colon = system: COLO 205 colon
UACC-62 melanoma = system: UACC-62 melanoma
SK-MEL-2 melanoma = system: SK-MEL-2 melanoma

Compound `COc1cc([C@@H]2C3C(=O)c4ccccc4C3[C@@H](c3cc(OC)c(OC)c(OC)c3)C23Cc2ccccc2C3=O)cc(OC)c1OC` (stereo not given in full) has a TGI (SF-268 CNS) greater than 100 µM, a TGI (OVCAR-8 ovarian) greater than 100 µM and a TGI (TK-10 renal) greater than 100 µM. The TGI (MDA-N) was greater than 100 µM, the TGI (OVCAR-4 ovarian) was greater than 100 µM and the TGI (MOLT-4 leukemia) was greater than 100 µM. The TGI (DU-145 prostate) was greater than 100 µM, the TGI (SK-OV-3 ovarian) was greater than 100 µM and the TGI (EKVX NSCLC) was greater than 100 µM. For the same compound, the TGI (UO-31 renal) was greater than 100 µM, the TGI (SNB-75 CNS) was greater than 100 µM and the TGI (SNB-19 CNS) was greater than 100 µM. For the same compound, the TGI (SF-295 CNS) was greater than 100 µM, the TGI (OVCAR-5 ovarian) was greater than 100 µM and the TGI (SK-MEL-28 melanoma) was greater than 100 µM. The TGI (BT-549 breast) was greater than 100 µM, the TGI (T-47D breast) was greater than 100 µM and the TGI (HCT-116 colon) was greater than 100 µM. The TGI (SK-MEL-5 melanoma) was greater than 100 µM, the TGI (HL-60(TB) leukemia) was greater than 100 µM and the TGI (A549 NSCLC) was greater than 100 µM. For the same compound, the TGI (U251 CNS) was greater than 100 µM, the TGI (786-0 renal) was greater than 100 µM and the TGI (CAKI-1 renal) was 7.85 µM. It also gave a TGI (OVCAR-3 ovarian) greater than 100 µM, a TGI (ACHN renal) greater than 100 µM and a TGI (HT29 colon) greater than 100 µM. For the same compound, the TGI (RXF 393 renal) was greater than 100 µM, the TGI (MDA-MB-231 breast) was greater than 100 µM and the TGI (PC-3 prostate) was greater than 100 µM. The TGI (LOX IMVI melanoma) was greater than 100 µM, the TGI (SF-539 CNS) was greater than 100 µM and the TGI (IGROV1 ovarian) was greater than 100 µM. For the same compound, the TGI (MDA-MB-435) was greater than 100 µM, the TGI (HCC-2998 colon) was greater than 100 µM and the TGI (NCI/ADR-RES ovarian) was greater than 100 µM. For the same compound, the TGI (MALME-3M melanoma) was greater than 100 µM, the TGI (HOP-62 NSCLC) was greater than 100 µM and the TGI (SW-620 colon) was greater than 100 µM. For the same compound, the TGI (HOP-92 NSCLC) was greater than 100 µM, the TGI (SR leukemia) was greater than 100 µM and the TGI (K-562 leukemia) was greater than 100 µM. The TGI (HCT-15 colon) was greater than 100 µM, the TGI (MCF7 breast) was greater than 100 µM and the TGI (NCI-H522 lung) was greater than 100 µM. The TGI (SN12C renal) was greater than 100 µM, the TGI (HS 578T breast) was greater than 100 µM and the TGI (NCI-H226 lung) was greater than 100 µM. The TGI (NCI-H23 lung) was greater than 100 µM, the TGI (CCRF-CEM leukemia) was greater than 100 µM and the TGI (KM12 colon) was greater than 100 µM. For the same compound, the TGI (A498 renal) was greater than 100 µM, the TGI (NCI-H460 lung) was greater than 100 µM and the TGI (UACC-257 melanoma) was greater than 100 µM. For the same compound, the TGI (M14 melanoma) was greater than 100 µM, the TGI (RPMI-8226 leukemia) was greater than 100 µM and the TGI (COLO 205 colon) was greater than 100 µM.

`CC1=C(C(=O)N[C@@H](CC(C)C)C(=O)O)N2C(=O)[C@@H](NC(=O)[C@@H](N)Cc3ccccc3)[C@H]2SC1` gave a TGI (SF-268 CNS) greater than 100 µM, a TGI (OVCAR-8 ovarian) greater than 100 µM and a TGI (TK-10 renal) greater than 100 µM. The TGI (MDA-N) was greater than 100 µM, the TGI (OVCAR-4 ovarian) was greater than 100 µM and the TGI (MOLT-4 leukemia) was greater than 100 µM. For the same compound, the TGI (DU-145 prostate) was greater than 100 µM, the TGI (EKVX NSCLC) was greater than 100 µM and the TGI (SNB-75 CNS) was greater than 100 µM. It also gave a TGI (SNB-19 CNS) greater than 100 µM, a TGI (SF-295 CNS) greater than 100 µM and a TGI (OVCAR-5 ovarian) greater than 100 µM. It also gave a TGI (SK-MEL-28 melanoma) greater than 100 µM, a TGI (BT-549 breast) greater than 100 µM and a TGI (T-47D breast) greater than 100 µM. For the same compound, the TGI (SK-MEL-5 melanoma) was greater than 100 µM, the TGI (HL-60(TB) leukemia) was greater than 100 µM and the TGI (A549 NSCLC) was greater than 100 µM. For the same compound, the TGI (U251 CNS) was greater than 100 µM, the TGI (786-0 renal) was greater than 100 µM and the TGI (CAKI-1 renal) was greater than 100 µM. It also gave a TGI (OVCAR-3 ovarian) greater than 100 µM, a TGI (ACHN renal) greater than 100 µM and a TGI (RXF 393 renal) greater than 100 µM. It also gave a TGI (MDA-MB-231 breast) greater than 100 µM, a TGI (PC-3 prostate) greater than 100 µM and a TGI (LOX IMVI melanoma) greater than 100 µM. The TGI (SF-539 CNS) was greater than 100 µM, the TGI (IGROV1 ovarian) was greater than 100 µM and the TGI (MDA-MB-435) was greater than 100 µM. It also gave a TGI (HCC-2998 colon) greater than 100 µM, a TGI (NCI/ADR-RES ovarian) greater than 100 µM and a TGI (MALME-3M melanoma) greater than 100 µM. It also gave a TGI (SW-620 colon) greater than 100 µM, a TGI (HOP-92 NSCLC) greater than 100 µM and a TGI (SR leukemia) greater than 100 µM. The TGI (K-562 leukemia) was greater than 100 µM, the TGI (HCT-15 colon) was greater than 100 µM and the TGI (UACC-62 melanoma) was greater than 100 µM. For the same compound, the TGI (MCF7 breast) was greater than 100 µM, the TGI (NCI-H522 lung) was greater than 100 µM and the TGI (SN12C renal) was greater than 100 µM. The TGI (HS 578T breast) was greater than 100 µM, the TGI (NCI-H226 lung) was greater than 100 µM and the TGI (CCRF-CEM leukemia) was greater than 100 µM. For the same compound, the TGI (KM12 colon) was greater than 100 µM, the TGI (SK-MEL-2 melanoma) was greater than 100 µM and the TGI (A498 renal) was greater than 100 µM. It also gave a TGI (NCI-H460 lung) greater than 100 µM, a TGI (UACC-257 melanoma) greater than 100 µM and a TGI (M14 melanoma) greater than 100 µM. For the same compound, the TGI (RPMI-8226 leukemia) was greater than 100 µM and the TGI (COLO 205 colon) was greater than 100 µM.
